Laboratory results as given in patent EP4790048A1, “S1PR4 REGULATOR COMPOUND FOR AUTOIMMUNE DISEASE TREATMENT AND APPLICATION THEREOF” (Shengyuan Zetong (Shanghai) Pharmaceutical Co., Ltd, priority 2023, dated 2025).
Positions count from the first letter of the chain named. Entries after “also recorded” stand apart in the source; their conditions may differ. Where two headings read alike, the source gives them in different places.

Columns and labels:
[1] = molecular target: T1, hS1P4-R-79C (Homo sapiens, UniProt O95977, R79C); assay: Tango β-arrestin recruitment luciferase assay, Tango-hS1P4-R-79C-CHO (S1PR4 mutant); type: cell-based; conditions: 20 h drug treatment
T1 construct: expressed in transfected cells; host or cells: CHO
T1 sequence (O95977 1-384 R79C): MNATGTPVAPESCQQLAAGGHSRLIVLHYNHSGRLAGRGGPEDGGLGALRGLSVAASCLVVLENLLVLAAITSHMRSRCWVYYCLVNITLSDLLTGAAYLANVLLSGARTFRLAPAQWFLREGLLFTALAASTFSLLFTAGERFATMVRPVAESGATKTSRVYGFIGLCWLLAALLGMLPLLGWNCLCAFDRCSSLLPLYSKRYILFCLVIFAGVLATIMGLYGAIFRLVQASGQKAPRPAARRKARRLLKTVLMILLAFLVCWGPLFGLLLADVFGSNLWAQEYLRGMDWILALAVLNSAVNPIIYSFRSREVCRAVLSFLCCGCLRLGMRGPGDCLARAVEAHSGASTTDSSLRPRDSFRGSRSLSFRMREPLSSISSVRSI
Text: The Tango assay detects ligand-dependent GPCR activity through the interaction between β-arrestin and GPCRs. […] The NTEV fragment and the tetracycline transactivator (tTA), an artificial transcription factor, are fused at the C-terminus of the GPCR, while the CTEV fragment is fused to human β-arrestin 2. To enhance the stability of the interaction between GPCR and β-arrestin, a short sequence from the C-terminus of the human arginine vasopressin receptor 2 (V2 tail) is inserted between the GPCR and NTEV. The V2 tail contains multiple GRK phosphorylation sites, which strengthen β-arrestin binding upon phosphorylation. The CTEV fragment carries the stabile point mutation S219P and is truncated at residue 221 to remove the autoinhibitory C-terminal tail. Meanwhile, β-arrestin 2 is truncated to lack the entire C-terminal tail (residues 383-410 deleted). This truncation confers robust stimulus-dependent receptor desensitization, thereby improving detection sensitivity compared with wild-type β-arrestin 2. The UAS reporter construct consists of upstream activating sequence (UAS) elements, a minimal CMV promoter, and a tTA-dependent luciferase reporter gene. Therefore, constructing Tango cells requires the co-transfection of the above three plasmids into host cells. Upon GPCR activation and β-arrestin recruitment, the TEV enzyme at the β-arrestin terminus cleaves tTA from the GPCR C-terminus. The released tTA initiates tTA-dependent luciferase transcription, and compound activity is ultimately determined by measuring luminescence intensity.
• 1) Tango cell line from was digested from the culture dish respectively. After cell counting, the cells were plated at a density of 10,000 cells per well with […] into a white opaque 96-well plate (add 60 µL D'Hanks to the surrounding wells), and incubated overnight (20 h) in a 5% CO2 incubator at 37°C. The cell density will reach approximately 90% the next day. • 2) After 20 h, 30 µL of serially diluted compound solution was added to each well. The control group was supplemented with 30 µL F12K complete medium. Each group had three replicate wells. • 3) Samples were collected after 20 h of drug treatment.
(All compounds were tested at a final concentration of 45 µM, with 9 serial dilutions at 5-fold intervals. 1 µM BAF-312 was used as the positive control for S1PR1, and 25 µM BAF-312 was used as the positive control for S1PR4.

[2] = molecular target: T2, S1PR4 (Homo sapiens, UniProt O95977); assay: S1PR4 internalization and recovery test in S1PR4-293T cells; type: cell-based; conditions: 1 µM, 37 °C, 1.5 hours; detected immediately, 5 hours or 20 hours after treatment
T2 construct: expressed in transfected cells; host or cells: 293T
T2 sequence (O95977 1-384): T1 sequence (O95977 1-384 R79C) with C79R
Procedure: Therefore, the recovery degree of S1PR4 after internalization caused by Compound 30 was evaluated, and the recovery effect following receptor internalization caused by Compound 30 was assessed in cells with high S1PR4 expression.

[3] = molecular target: T3, S1PR2 (Homo sapiens, UniProt O95136); assay: FLIPR assay, S1PR2-CHO cell line; type: cell-based; conditions: mean ± SD
T3 construct: expressed in transfected cells
T3 sequence (O95136 whole entry, species assumed): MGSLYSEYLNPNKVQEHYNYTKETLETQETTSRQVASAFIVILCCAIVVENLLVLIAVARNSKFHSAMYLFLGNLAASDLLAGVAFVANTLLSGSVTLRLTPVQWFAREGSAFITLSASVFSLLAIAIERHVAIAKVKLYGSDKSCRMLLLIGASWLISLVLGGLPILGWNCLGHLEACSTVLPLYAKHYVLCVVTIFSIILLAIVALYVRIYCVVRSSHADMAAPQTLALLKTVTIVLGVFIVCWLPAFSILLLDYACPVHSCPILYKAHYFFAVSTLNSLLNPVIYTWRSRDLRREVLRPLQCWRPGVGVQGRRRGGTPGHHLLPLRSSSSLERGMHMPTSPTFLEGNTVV

[4] = system: MRL/lpr mice; assay: Systemic lupus erythematosus model, MRL/lpr mice; type: in vivo; conditions: for renal pathology (HE and PAS staining): 8 weeks of treatment
Procedure: Based on this, the inventor conducted efficacy evaluation on this compound using MRL/lpr mice, a classic model of lupus erythematosus.
The efficacy of Compound 67 was evaluated using MRL/Lpr lupus model mice.
The specific groups were as follows: MPJ control group, model group, positive drug Cenerimod group at 0.5 mg/kg, and Compound 67 at two doses: 1 mg/kg and 3 mg/kg.

[5] = Compound 67 1 mg/kg and 3 mg/kg, 8 weeks, vs SLE model group

Structure (SMILES) | EC50 [1] [µM] | S1PR4 internalization (expression of S1PR4 receptor on the cell surface) [2] | EC50 [3] | EC50 ([3]; read-out: EC50) [µM] | renal pathology (HE and PAS staining) ([4]; vs SLE model group) | serum anti-nuclear / anti-double-stranded DNA antibody level ([4]; 8 weeks, vs SLE model group) | subcutaneous nodules ([4]; SLE mice, vs model) | body weight gain and mortality ([4]; continuous administration for 8 weeks, vs SLE model group) | Th1- and Th17-positive cells in spleen, Th1/Th2 and Th17/Treg ratios ([4]; vs SLE model group) | serum creatinine level [4, 5] | urinary microalbumin level (MAU) [4, 5]
CCc1cc(/C(C)=N/OCc2ccc(-c3ccccc3)c(C)c2)ccc1CN1CC[C@H](C(=O)O)C1 [Compound 30] | 0.015 | sustained internalization of S1PR4 for up to 20 hours | no agonist activity | > 10 | improves renal pathological injury; also recorded: renal interstitial inflammatory cell infiltration was significantly reduced | dose-dependently reduces; also recorded: markedly decreased | dose-dependently reduces; also recorded: significantly reduced subcutaneous nodules | reduces the mortality rate; also recorded: prevented body weight gain and reduced mortality in a dose-dependent manner | regulates the number and ratio of T lymphocytes; also recorded: significantly reduce the number of Th1- and Th17-positive cells | – | –
CCc1cc(/C(C)=N/OCc2ccc(-c3cnc(F)cn3)c(C)c2)ccc1CN1CC[C@H](C(=O)O)C1 [Compound 67, (S, E)-1-(2-ethyl-4-(1-(((4-(5-fluoropyrazin-2-yl)-3-methylbenzyl)oxy)imino)ethyl)benzyl)pyrrolidine-3-carboxylic acid] | – | – | – | > 10 | inflammatory cell infiltration was significantly reduced | significantly reduces the anti-double-stranded DNA antibody level; also recorded: significantly reduce the level of anti-double-stranded DNA antibody | – | – | regulates the number and ratio of T lymphocytes; also recorded: significantly reduce the number of Th1- and Th17-positive cells | significantly reduce the serum creatinine level | significantly reduced the urinary microalbumin level
